The target in one series is Human Factor XIIa (Homo sapiens (Human), UniProt P00748). Briefly: Factor XIIa inhibitory activity in vitro. The class given is biochemical. The conditions noted are these: 25° C., substrate H-DPro-Phe-Arg-AFC; read-out: IC50 (human FXIIa). The protocol: Human Factor XIIa (Enzyme Research Laboratories) was incubated at 25° C. with the fluorogenic substrate H-DPro-Phe-Arg-AFC and various concentrations of the test compound. Residual enzyme activity (initial rate of reaction) was determined by measuring the change in […] at 410 nm and the IC50 value for the test compound was determined.

For a further series, the target named is Human FXIa (Homo sapiens (Human), UniProt P03951). Briefly: Determination of the % inhibition / IC50 for FXIa. The class given is biochemical. Particulars: for IC50: 25° C., substrate Z-Gly-Pro-Arg-AFC. The protocol:
FXIa inhibitory activity in vitro was determined using standard published methods (see e.g. Johansen et al., Int. J. Tiss. Reac. 1986, 8, 185; Shori et al., Biochem. Pharmacol., 1992, 43, 1209; Sturzebecher et al., Biol. Chem. Hoppe-Seyler, 1992, 373, 1025). […]

Another series addresses Human KLK1 (Homo sapiens (Human), UniProt P06870). Briefly: Determination of the IC50 for KLK1. Type of series: biochemical. Particulars: 25° C., substrate H-DVal-Leu-Arg-AFC. On the procedure:
Human KLK1 (Callbiochem) was incubated at 25° C. with the fluorogenic substrate H-DVal-Leu-Arg-AFC and various concentrations of the test compound. Residual enzyme activity (initial rate of reaction) was determined by measuring the change in […] at 410 nm and the IC50 value for the test compound was determined.

Series [1] is described as follows: In vitro permeability, Caco-2 model for oral absorption. Type of series: in vitro ADME. Particulars: human, apical to basolateral, 50 μM test compound, 37° C. On the procedure: In vitro permeability was determined using the Caco-2 model for oral absorption. The methodology was adapted from standard published methods (Wang Z, Hop C. E., Leung K. H. and Pang J. (2000) J Mass Spectrom 35(1); 71-76). The Caco-2 monolayers were established in a Biocoat™ HTS fibrillar collagen 24 well multiwell insert system (1.0 μm, PET membrane, Corning 354803) in which 200,000 cells were seeded into each insert and maintained over 3 days before being utilised in the permeability assay. For the assay, 50 μM test compound is added to the apical side of the inserts and incubated for 1 hour at 37° C. on a shaking platform (120 rpm). Apical to basolateral transport was determined by measuring the test article in both compartments by LCMS following the 1 hour incubation. The integrity of the Caco-2 monolayers was confirmed by two methods, (i) comparison of pre- and post-experiment transepithelial electrical resistance (TEER) and, (ii) assessment of Lucifer Yellow flux.
In general terms: Passage across Caco-2 layers is used to estimate intestinal permeability.

Series [2] addresses T1, Human plasma kallikrein (Homo sapiens (Human), UniProt P03952). Put plainly: Determination of the Ki for plasma kallikrein (mixed-model inhibition). Particulars: for Ki: human plasma kallikrein, mixed-model inhibition equation; for Alpha: parameter of the mixed-model equation indicating mechanism of inhibition. The class given is biochemical. On the procedure:
Plasma kallikrein inhibitory activity in vitro was determined using standard published methods (e.g. Johansen et al., Int. J. Tiss. Reac. 1986, 8, 185; Shori et al., Biochem. Pharmacol., 1992, 43, 1209; Sturzebecher et al., Biol. Chem. Hoppe-Seyler, 1992, 373, 1025). […]. Residual enzyme activity (initial rate of reaction) was determined by measuring the change in fluorescence at 410 nm. The Ki value for the test compound was determined using the mixed-model inhibition equation (based on Equation 3.2 in: RA Copeland, Evaluation of Enzyme Inhibitors in Drug Discovery, Wiley 2005) in GraphPad Prism. The mixed model equation includes competitive, uncompetitive and noncompetitive inhibition as special cases and the parameter of Alpha to indicate mechanism of inhibition.

The target of series [3] is T1, Human plasma kallikrein. Briefly: Determination of the IC50 for plasma kallikrein. Type of series: biochemical. Particulars: 25° C., substrate H-DPro-Phe-Arg-AFC; read-out: IC50 (human PKal). The protocol:
Human plasma kallikrein (Protogen) was incubated at 25° C. with the fluorogenic substrate H-DPro-Phe-Arg-AFC and various concentrations of the test compound. Residual enzyme activity (initial rate of reaction) was determined by measuring the change in […] at 410 nm and the IC50 value for the test compound was determined.

Series [4] is described as follows: Intrinsic clearance in human liver microsomes. Type of series: in vitro ADME. The conditions noted are these: human liver microsomes 0.5 mg/mL, 5 μM test compound, 37° C.; read-out: Human liver microsome (Clint μL/min/mg protein). The protocol:
(§1) Rat or human liver microsomes (0.5 mg/mL; Corning) were incubated with 5 μM test compound at 37° C. on a shaking platform (150 rpm). Samples were taken at 0, 6, 12, 18, 24 and 60 min and test compound concentrations were determined by LCMS against a calibration curve.

Series [5] can be described thus: Intrinsic clearance in rat liver microsomes. The class given is in vitro ADME. The conditions noted are these: rat liver microsomes 0.5 mg/mL, 5 μM test compound, 37° C.; read-out: rat liver microsome (Clint μL/min/mg protein). The protocol: as §1

Sequence of Human Factor XIIa (P00748 373-615): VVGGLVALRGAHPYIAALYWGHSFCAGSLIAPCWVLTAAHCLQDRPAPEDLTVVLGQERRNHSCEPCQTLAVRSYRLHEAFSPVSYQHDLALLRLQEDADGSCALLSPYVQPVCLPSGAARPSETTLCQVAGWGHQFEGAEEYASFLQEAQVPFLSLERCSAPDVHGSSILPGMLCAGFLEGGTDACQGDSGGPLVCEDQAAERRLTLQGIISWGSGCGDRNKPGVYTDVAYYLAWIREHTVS
T1 sequence (P03952 391-638): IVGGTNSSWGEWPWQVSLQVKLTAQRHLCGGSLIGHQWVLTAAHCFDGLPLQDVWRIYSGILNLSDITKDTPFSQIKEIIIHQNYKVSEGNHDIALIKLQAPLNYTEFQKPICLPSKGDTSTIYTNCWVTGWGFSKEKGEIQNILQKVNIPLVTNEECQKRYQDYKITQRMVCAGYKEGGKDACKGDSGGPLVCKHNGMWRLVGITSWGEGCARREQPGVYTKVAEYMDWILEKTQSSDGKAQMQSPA
T1 sequence (P03952 20-390): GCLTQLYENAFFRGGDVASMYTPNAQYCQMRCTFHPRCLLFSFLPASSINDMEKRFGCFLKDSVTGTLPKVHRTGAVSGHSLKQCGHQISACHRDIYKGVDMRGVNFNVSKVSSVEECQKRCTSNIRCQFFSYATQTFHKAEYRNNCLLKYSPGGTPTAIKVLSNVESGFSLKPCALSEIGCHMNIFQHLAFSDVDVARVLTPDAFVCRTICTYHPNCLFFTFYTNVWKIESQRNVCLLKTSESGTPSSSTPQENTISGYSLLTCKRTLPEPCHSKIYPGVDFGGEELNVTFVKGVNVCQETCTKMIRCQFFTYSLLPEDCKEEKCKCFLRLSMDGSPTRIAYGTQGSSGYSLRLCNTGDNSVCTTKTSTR
Sequence of Human FXIa (P03951 388-625): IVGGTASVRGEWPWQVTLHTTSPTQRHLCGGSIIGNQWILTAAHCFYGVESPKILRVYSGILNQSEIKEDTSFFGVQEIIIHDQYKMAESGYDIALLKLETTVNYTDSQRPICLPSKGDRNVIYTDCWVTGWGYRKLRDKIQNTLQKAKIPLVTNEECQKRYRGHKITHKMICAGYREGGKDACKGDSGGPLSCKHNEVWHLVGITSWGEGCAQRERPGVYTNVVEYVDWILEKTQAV
Sequence of Human FXIa (P03951 19-387): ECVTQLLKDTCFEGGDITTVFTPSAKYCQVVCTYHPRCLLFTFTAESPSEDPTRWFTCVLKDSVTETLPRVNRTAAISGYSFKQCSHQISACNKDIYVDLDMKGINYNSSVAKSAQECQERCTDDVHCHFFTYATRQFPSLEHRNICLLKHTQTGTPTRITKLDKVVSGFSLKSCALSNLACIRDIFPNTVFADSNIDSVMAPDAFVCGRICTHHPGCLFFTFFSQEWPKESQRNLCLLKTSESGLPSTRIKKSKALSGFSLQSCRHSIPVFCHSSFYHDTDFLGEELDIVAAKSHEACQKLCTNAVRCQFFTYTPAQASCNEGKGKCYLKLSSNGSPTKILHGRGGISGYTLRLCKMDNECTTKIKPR
Sequence of Human KLK1 (P06870 25-262): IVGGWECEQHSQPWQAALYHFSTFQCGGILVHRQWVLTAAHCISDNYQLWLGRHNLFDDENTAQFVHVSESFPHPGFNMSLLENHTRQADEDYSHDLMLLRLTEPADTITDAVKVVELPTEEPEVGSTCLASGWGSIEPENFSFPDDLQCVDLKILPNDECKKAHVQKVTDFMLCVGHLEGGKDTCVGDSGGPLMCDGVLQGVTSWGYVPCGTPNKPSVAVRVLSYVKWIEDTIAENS

By IC50 is commonly meant the point on the concentration scale where inhibition reaches its midpoint. What is called Papp is the rate of passage across a membrane or cell layer, normalised by area and donor concentration. The low end stands for poor permeation, the high end for ready permeation. As usually defined, the Ki is a measure of affinity in units of concentration, obtained from inhibition or displacement. For the compound `COc1ccc(-n2cnnn2)c(CNC(=O)c2cn(Cc3ccc(N4CCCC4)nc3)nc2C(F)(F)F)c1F` [Example 83, N-{[2-fluoro-3-methoxy-6-(1,2,3,4-tetrazol-1-yl)phenyl]methyl}-1-{[6-(pyrrolidin-1-yl)pyridin-3-yl]methyl}-3-(trifluoromethyl)pyrazole-4-carboxamide], the IC50 was over 40 µM at Human Factor XIIa, 0.23 µM against Human FXIa, over 40 µM against Human KLK1 and 0.0003 µM on Human plasma kallikrein [3]. Moreover, in series [1], the apparent permeability (Papp) at 1 h, 50 μM is 23 ×10⁻⁶ cm/s. This compound returned a Ki at Human plasma kallikrein [2] of 0.00053 µM. The compound also came in with an Alpha at Human plasma kallikrein [2] of 2.24.
Regarding `COc1ccnc(CNC(=O)c2cn(Cc3ccc(Cn4ccccc4=O)cc3)nc2N(C)C)c1F` [Example 7, 3-(dimethylamino)-N-[(3-fluoro-4-methoxypyridin-2-yl)methyl]-1-({4-[(2-oxopyridin-1-yl)methyl]phenyl}methyl)pyrazole-4-carboxamide], the IC50 on Human Factor XIIa is over 40 µM; on Human FXIa, over 40 µM; against Human KLK1 it was over 40 µM; at Human plasma kallikrein [3] it was 0.018 µM. Also, in series [1], the Papp at 1 h, 50 μM turned out to be 10 ×10⁻⁶ cm/s. Besides, the microsomal CLint at 5 μM in series [4] stood at 22 µL/min/mg; in series [5], 8 µL/min/mg.
`Nc1nn(Cc2ccc(Cn3ccccc3=O)cc2)cc1C(=O)NCc1cc(Cl)ccc1-n1cnnn1` [Example 71, 3-amino-N-{[5-chloro-2-(1,2,3,4-tetrazol-1-yl)phenyl]methyl}-1-({4-[(2-oxopyridin-1-yl)methyl]phenyl}methyl)pyrazole-4-carboxamide]: the IC50 is over 4 µM at Human Factor XIIa, 4.6 µM against Human FXIa, over 4 µM on Human KLK1 and 0.0003 µM at Human plasma kallikrein [3]. This compound also returned a Papp at 1 h, 50 μM in series [1] of 1 ×10⁻⁶ cm/s. Moreover, the microsomal CLint at 5 μM in series [4] and in series [5] was 17 µL/min/mg throughout.
With `COCc1nn(Cc2ccc(Cn3ccccc3=O)nc2)cc1C(=O)NCc1c(C#N)ccc(OC)c1F` [Example 52, N-[(6-cyano-2-fluoro-3-methoxyphenyl)methyl]-3-(methoxymethyl)-1-({6-[(2-oxopyridin-1-yl)methyl]pyridin-3-yl}methyl)pyrazole-4-carboxamide], the concentration for half-maximal inhibition (IC50) is over 4 µM on Human Factor XIIa, over 40 µM against Human FXIa, over 4 µM against Human KLK1 and 0.0064 µM on Human plasma kallikrein [3]. Moreover, the Papp at 1 h, 50 μM in series [1] turned out to be 5 ×10⁻⁶ cm/s. For the same compound, the values for the microsomal CLint at 5 μM in series [4] and in series [5] were 16 µL/min/mg and 8 µL/min/mg, respectively.
For the compound `COCc1nn(Cc2cnc(N3CCC(F)(F)C3)nc2)cc1C(=O)NCc1cc(OC)ccc1-n1cnnn1` [Example 88, 1-{[2-(3,3-difluoropyrrolidin-1-yl)pyrimidin-5-yl]methyl}-N-{[5-methoxy-2-(1,2,3,4-tetrazol-1-yl)phenyl]methyl}-3-(methoxymethyl)pyrazole-4-carboxamide], the IC50 on Human Factor XIIa is over 40 µM; against Human FXIa, 4.88 µM; at Human KLK1 it was over 40 µM; on Human plasma kallikrein [3] it was 0.0083 µM. For the same compound, affinity on Human plasma kallikrein [2] was put at a Ki of 0.0029 µM.
Broadly, the inhibition is the percentage by which the read-out fell short of the control. With `COc1ccc(C#N)c(CNC(=O)c2cn(Cc3ccc(Cn4ccccc4=O)cc3)nc2N(C)C)c1F` [Example 44, N-[(6-cyano-2-fluoro-3-methoxyphenyl)methyl]-3-(dimethylamino)-1-({4-[(2-oxopyridin-1-yl)methyl]phenyl}methyl)pyrazole-4-carboxamide], the IC50 was over 40 µM on Human Factor XIIa, over 40 µM at Human FXIa, over 80 µM at Human KLK1 and 0.0088 µM at Human plasma kallikrein [3]. Moreover, on Human FXIa (40 μM test compound, read-out: % Inhibition @ 40 μM (human FXIa)), the inhibition at 40 µM stood at 32%. The same compound registered an apparent permeability (Papp) at 1 h, 50 μM in series [1] of 17 ×10⁻⁶ cm/s. Besides, the figures for the microsomal CLint at 5 μM in series [4] and in series [5] were 162 µL/min/mg and 101 µL/min/mg, respectively.
Turning to `COc1cccc(CNC(=O)c2cn(Cc3ccc(Cn4ccccc4=O)cc3)nc2N)c1F` [Reference Example B, 3-Amino-1-[4-(2-oxo-2H-pyridin-1-ylmethyl)-benzyl]-1H-pyrazole-4-carboxylic acid 2-fluoro-3-methoxy-benzylamide, reference compound], the IC50 at Human Factor XIIa was over 40 µM; on Human FXIa it was over 40 µM; against Human KLK1, over 10 µM. The compound also came in with a Ki on Human plasma kallikrein [2] of 0.0067 µM. Further, the Alpha at Human plasma kallikrein [2] came to 48.
In the case of `COCc1nn(Cc2ccc(Cn3cccn3)cc2)cc1C(=O)NCc1cccc(Cl)c1F` [Reference Example J, reference compound], the IC50 is over 40 µM on Human Factor XIIa, over 40 µM against Human FXIa, over 40 µM against Human KLK1 and 2.87 µM on Human plasma kallikrein [3]. Further, in series [1], the Papp at 1 h, 50 μM is 12 ×10⁻⁶ cm/s. For the same compound, the microsomal CLint at 5 μM in series [4] turned out to be 110 µL/min/mg; in series [5] it was 187 µL/min/mg.
Consider `COCc1nn(Cc2ccc(Cn3cc(C)cn3)cc2)cc1C(=O)NCc1nccc(OC)c1F` [Example 1, N-[(3-fluoro-4-methoxypyridin-2-yl)methyl]-3-(methoxymethyl)-1-({4-[(4-methylpyrazol-1-yl)methyl]phenyl}methyl)pyrazole-4-carboxamide], for which the IC50 is over 40 µM at Human Factor XIIa, over 40 µM against Human FXIa, over 40 µM on Human KLK1 and 0.0261 µM on Human plasma kallikrein [3]. The compound also came in with a Papp at 1 h, 50 μM in series [1] of 28 ×10⁻⁶ cm/s. Besides, the results for the microsomal CLint at 5 μM in series [4] and in series [5] were 33 µL/min/mg and 52 µL/min/mg, respectively.

(Values after US11180484B2, “Pyrazole derivatives as plasma kallikrein inhibitors” (KALVISTA PHARMACEUTICALS LIMITED, priority 2016, dated 2021).)
